Measured values published in US6596772B1, “Phosphate mimics and methods of treatment using phosphatase inhibitors” (Sugen, Inc., priority 1999, dated 2003).
pIC50: −log10 of the molar value. Like-named read-outs stand apart in the source and are kept apart here.

Tests used:
Assay in all cases: PTP IC50 assay, pNPP or FDP as substrate
Format in all cases: biochemical
PTP BETA = molecular target: T1, PTP BETA (Homo sapiens, UniProt P23467)
T1 construct: The catalytic domain was amplified using the following oligonucleotides; made in house; host or cells: E. coli BL-21 (pGEX 6P-1)
T1 sequence (P23467 1653-1997): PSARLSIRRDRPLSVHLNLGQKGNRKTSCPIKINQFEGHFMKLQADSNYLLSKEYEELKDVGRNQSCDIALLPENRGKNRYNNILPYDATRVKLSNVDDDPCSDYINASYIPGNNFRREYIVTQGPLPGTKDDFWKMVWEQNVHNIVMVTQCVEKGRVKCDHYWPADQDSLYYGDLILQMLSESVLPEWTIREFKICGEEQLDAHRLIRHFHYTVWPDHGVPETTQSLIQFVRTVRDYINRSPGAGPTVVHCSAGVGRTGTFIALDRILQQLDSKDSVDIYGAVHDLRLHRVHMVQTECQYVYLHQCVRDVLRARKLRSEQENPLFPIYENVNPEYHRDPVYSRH
Method: (§1) The following in vitro assay procedure is preferred to determine the level of activity and effect of the different compounds of the present invention on one or more of the PTPs. Similar assays can be designed along the same lines for any PTP using techniques well known in the art.
(§2) The catalytic assays described herein are performed in a 96-well format. The general procedure begins with the determination of PTP optimal pH using a three-component buffer system that minimizes ionic strength variations across a wide range of buffer pH. Next, the Michaelis-Menten constant, or Km, is determined for each specific substrate-PTP system. This Km value is subsequently used as the substrate reaction concentration for compound screening. Finally, the test PTP is exposed to varying concentrations of compound for fifteen minutes and allowed to react with substrate for ten minutes. The results are plotted as percent inhibition versus compound concentration and the IC50 interpolated from the plot.
(§3) All assays were performed using pNPP or FDP as substrate. The optimum pH was determined for each PTP used.
(§4) PTPase activity was assayed at 25° C. in a 100-μl reaction mixture containing an appropriate concentration of pNPP or FDP as substrate. The reaction was initiated by addition of the PTP and quenched after 10 min by addition of 50 μl of IN NaOH. The non-enzymatic hydrolysis of the substrate was corrected by measuring the control without the addition of the enzyme. The amount of p-nitrophenol produced was determined from the absorbance at 410 nm. To determine the kinetic parameter, Km, the initial velocities were measured at various substrate concentrations and the data were fitted to the Michaelis equation where velocity=(Vmax*[S])/(Km+[S]), and [S]=substrate reaction concentration.
(§5) The effect of the compounds on PTP was evaluated at 25° C. using pNPP or FDP as substrate. PTP was pre-incubated for fifteen minutes with various concentrations of compound. Substrate was then added at a fixed concentration (usually equal to the Km previously calculated). After 10 minutes, NaOH was added to stop the reaction. The hydrolysis of pNPP was followed at 410 nm on the Biotek Powerwave 200 microplate scanning spectrophotometer. The percent inhibition was calculated as follows: Percent Inhibition=[(control signal−compound signal)/control signal] ×100%. The IC50 was then determined by interpolation of a percent inhibition versus compound concentration plot.
(§6) Plasmids designed for bacterial GST-PTP fusion protein expression were derived by insertion of PCR-generated human PTP fragments into pGEX vectors (Pharmacia Biotech). Several of these constructs were then used to subclone phosphatases into pFastBac-1for expression in Sf-9 insect cells. Oligonucleotides used for the initial amplification of PTP genes are shown below. The cDNAs were prepared using the Gilbo BRL superscript preamplification system on RNAs purchased from Clontech.
The PTP Beta cDNA used has been described earlier (Levy et al., 1993, J. Biol. Chem, 268:10573-10581). The catalytic domain was amplified using the following oligonucleotides: 5′oligo: 5′-[…]-3′ (SEQ ID NO: 16) 3′oligo: 5′-[…]-3′ (SEQ ID NO: 17) and subsequently cloned into the Eco RI/Xho I sites of pGEX 6P-1.

PTP 1B = molecular target: T2, PTP 1B (Homo sapiens, UniProt P18031)
T2 construct: made in house; host or cells: Sf-9 insect cells (pFastBac-G2T)
T2 sequence (P18031 1-435): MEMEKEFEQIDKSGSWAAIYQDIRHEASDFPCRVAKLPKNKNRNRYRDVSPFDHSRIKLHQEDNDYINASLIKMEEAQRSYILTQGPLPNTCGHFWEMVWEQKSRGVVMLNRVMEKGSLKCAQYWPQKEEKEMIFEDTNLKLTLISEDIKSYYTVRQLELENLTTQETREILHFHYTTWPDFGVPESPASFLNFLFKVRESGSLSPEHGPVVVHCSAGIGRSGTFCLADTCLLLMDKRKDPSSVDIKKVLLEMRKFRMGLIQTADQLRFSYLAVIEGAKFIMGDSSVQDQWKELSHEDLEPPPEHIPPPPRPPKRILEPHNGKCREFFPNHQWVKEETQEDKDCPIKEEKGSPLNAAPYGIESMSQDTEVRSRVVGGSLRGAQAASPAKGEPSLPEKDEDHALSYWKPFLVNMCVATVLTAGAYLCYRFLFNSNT
Method: as §1, §2, §3, §4, §5, §6
The PTP1b cDNA was amplified from human placenta single strand cDNA (Clontech RNA) using the following oligonucleotides: 5′oligo: 5′-[…] (SEQ ID NO: 4) 3′oligo: 5′-[…] (SEQ ID NO: 5) It was subsequently ligated into pFasBac G2TBamH1Xba-1 sites.

PTP MEG2 = molecular target: T3, PTP MEG2 (Homo sapiens, UniProt P43378)
T3 construct: made in house; host or cells: E. coli BL-21 (pGEX 6P-1)
T3 sequence (P43378 262-593 limits assumed): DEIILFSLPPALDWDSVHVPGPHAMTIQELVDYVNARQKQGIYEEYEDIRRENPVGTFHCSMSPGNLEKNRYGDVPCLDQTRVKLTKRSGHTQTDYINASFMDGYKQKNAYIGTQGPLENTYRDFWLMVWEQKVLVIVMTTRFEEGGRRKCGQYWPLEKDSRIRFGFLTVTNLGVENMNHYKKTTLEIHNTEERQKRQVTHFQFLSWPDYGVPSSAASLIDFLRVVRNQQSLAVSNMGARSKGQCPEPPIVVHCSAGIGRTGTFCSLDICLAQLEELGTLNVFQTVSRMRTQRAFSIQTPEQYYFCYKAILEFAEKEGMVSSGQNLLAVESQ
Method: as §1, §2, §3, §4, §5, §6
The PTP MEG2 cDNA was amplified from human placenta single strand cDNA (Clontech RNA) using the following oligonucleotides: 5′oligo: 5′-[…]-3′ (SEQ ID NO: 8) 3′oligo: 5′-[…]-3′ (SEQ ID NO: 9) and subsequently ligated into pGex 6P-1 Eco RI/Xho I sites.

[1] = pNPP or FDP as substrate, 25° C., read-out: PTP IC50 Beta
[2] = pNPP or FDP as substrate, 25° C., read-out: PTP IC50 1B
[3] = pNPP or FDP as substrate, 25° C., read-out: PTP IC50 MEG2

| Molecule | pIC50 (PTP BETA; [1]) | pIC50 (PTP 1B; [2]) | pIC50 (PTP MEG2; [3]) | pIC50 (PTP BETA; comparison of R groups, read-out: IC50 Beta) | pIC50 (PTP 1B; comparison of R groups, read-out: IC50 1B) | pIC50 (PTP MEG2; comparison of R groups, read-out: IC50 MEG2) |
| --- | --- | --- | --- | --- | --- | --- |
| 1-(4-Aminophenoxy)-4-trifluoromethylsulfonamidophenoxy benzene [Example 72] | 4.64 | 4.55 | < 4.00 |  |  |  |
| O=[N+]([O-])c1cc(S(=O)(=O)C(F)(F)F)ccc1OC1CCC(Oc2ccc(S(=O)(=O)C(F)(F)F)cc2[N+](=O)[O-])C1 (mixture of isomers) [Example 12, 1,3-Bis-(2-nitro-4-trifluoromethanesulfonyl-phenoxy)-cyclopentane] | 4.75 | < 4.00 | < 4.00 |  |  |  |
| CS(=O)(=O)Nc1ccc(Oc2ccc(Oc3ccc(NS(C)(=O)=O)cc3)cc2)cc1 [CH3SO2NH—] |  |  |  | 4.20 | 4.28 | < 4.00 |
| O=S(=O)(c1ccc(COCc2ccc(S(=O)(=O)C(F)(F)F)cc2)cc1)C(F)(F)F [Example 1, Bis (4-trifluoromethylsulfonylbenzyl) ether] | 5.23 | < 4.00 | 4.26 |  |  |  |
| O=S(=O)(c1ccc(COc2ccc(S(=O)(=O)C(F)(F)F)cc2)cc1)C(F)(F)F [Example 2, 4-Trifluoromethylsulfonylbenzyl 4-trifluoromethylsulfonylphenyl ether] | 5.46 | 4.25 | 4.21 |  |  |  |
| O=C(c1ccccc1)N(Cc1ccc(S(=O)(=O)C(F)(F)F)cc1)Cc1ccc(S(=O)(=O)C(F)(F)F)cc1 [Example 3, N,N-Bis(4-trifluoromethylsulfonylbenzyl)benzamide] | 4.76 | 4.35 | 4.07 |  |  |  |
| O=S(=O)(c1ccc(CCc2ccc(S(=O)(=O)C(F)(F)F)cc2)cc1)C(F)(F)F [Example 4, 1,2-Bis(4-trifluoromethylsulfonylphenyl)ethane] | 5.17 | < 4.00 | 4.34 |  |  |  |
| O=C(NCc1ccc(S(=O)(=O)C(F)(F)F)cc1)c1ccc(S(=O)(=O)C(F)(F)F)cc1 [Example 5, N-(4-Trifluoromethylsulfonylbenzyl)-4-trifluoromethylsulfonylbenzamide] | 4.35 | < 4.00 | < 4.00 |  |  |  |
| O=C(NCc1ccc(S(=O)(=O)C(F)(F)F)cc1)c1ccccc1 [Example 6, N-(4-Trifluoromethylsulfonylbenzyl)benzamide] | < 4.00 | < 4.00 | < 4.00 |  |  |  |
| O=[N+]([O-])c1cc(S(=O)(=O)C(F)(F)F)ccc1SSc1ccc(S(=O)(=O)C(F)(F)F)cc1[N+](=O)[O-] [Example 8, Bis-(2-nitro-4-trifluoromethylsulfonylphenyl) disulfide] | 4.58 | 4.33 | < 4.00 |  |  |  |
| COC(=O)c1cc(Oc2ccc(S(=O)(=O)C(F)(F)F)cc2)cc(Oc2ccc(S(=O)(=O)C(F)(F)F)cc2)c1 [Example 9, 3,5-Bis-(4-trifluoromethanesulfonyl-phenoxy)-benzoic acid methyl ester] | 4.34 | < 4.00 | < 4.00 |  |  |  |
| COC(=O)Cc1cc(Oc2ccc(S(=O)(=O)C(F)(F)F)cc2[N+](=O)[O-])cc(Oc2ccc(S(=O)(=O)C(F)(F)F)cc2[N+](=O)[O-])c1 [Example 10, [3,5-Bis-(2-nitro-4-trifluoromethanesulfonyl-phenoxy)-phenyl]-acetic acid methyl ester] | 4.69 | < 4.00 | < 4.00 |  |  |  |
| COC(=O)c1cc(Oc2ccc(S(=O)(=O)C(F)(F)F)cc2[N+](=O)[O-])cc(Oc2ccc(S(=O)(=O)C(F)(F)F)cc2[N+](=O)[O-])c1 [Example 11, 3,5-Bis-(2-nitro-4-trifluoromethanesulfonyl-phenoxy)-benzoic acid methyl ester] | 4.95 | < 4.00 | < 4.00 |  |  |  |
| COC(=O)c1c(Oc2ccc(S(=O)(=O)C(F)(F)F)cc2[N+](=O)[O-])cc(C)cc1Oc1ccc(S(=O)(=O)C(F)(F)F)cc1[N+](=O)[O-] [Example 13, 4-Methyl-2,6-bis-(2-nitro-4-trifluoromethanesulfonyl-phenoxy)-benzoic acid methyl ester] | 4.82 | < 4.00 | < 4.00 |  |  |  |
| COC(=O)c1ccc(OCCOc2ccc(S(=O)(=O)C(F)(F)F)cc2[N+](=O)[O-])cc1 [Example 14, 4-[2-(2-nitro-4-trifluoromethanesulfonyl-phenoxy)-ethoxy]-benzoic acid methyl ester] | 4.87 | < 4.00 | < 4.00 |  |  |  |
| O=C(O)c1ccc(Oc2cccc(Oc3ccc(S(=O)(=O)C(F)(F)F)cc3[N+](=O)[O-])c2)cc1 [Example 15, 4-[3-(2-Nitro-4-trifluoromethanesulfonyl-phenoxy)-phenoxy]-benzoic acid] | 4.99 | 4.80 | 4.68 |  |  |  |
| COC(=O)c1cc(Oc2ccc(S(=O)(=O)C(F)(F)F)cc2[N+](=O)[O-])n(-c2cc(C(F)(F)F)cc(C(F)(F)F)c2)n1 [Example 16, 1-(3,5-Bis-trifluoromethyl-phenyl)-5-(2-nitro-4-trifluoromethanesulfonyl-phenoxy)-1H-pyrazole-3-carboxylic acid methyl ester] | 5.02 | < 4.00 | 4.10 |  |  |  |
| CCOC(=O)COc1ccc(S(=O)(=O)c2ccc(Oc3ccc(S(=O)(=O)C(F)(F)F)cc3[N+](=O)[O-])cc2)cc1 [Example 17, {4-[4-(2-Nitro-4-trifluoromethanesulfonyl-phenoxy)-benzenesulfonyl]-phenoxy}-acetic acid ethyl ester] | 4.59 | < 4.00 | 4.05 |  |  |  |
| O=C(O)c1ccc(Oc2cccc(Oc3ccc(S(=O)(=O)C(F)(F)F)cc3)c2)cc1 [Example 18, 4-[3-(4-Trifluoromethanesulfonyl-phenoxy)-phenoxy]-benzoic acid] | 4.87 | 4.79 | 4.36 |  |  |  |
